Reference: patent publication US20250145566A1, “PHENETHYLAMINE DERIVATIVES, COMPOSITIONS, AND METHODS OF USE” (Cybin IRL Limited, priority 2022, published 2025)
“Also recorded” adds a separate entry of the source. Like-named read-outs stand apart in the source and are kept apart here.

Assays:
Serotonin transporter = molecular target: T1, Serotonin transporter (Rattus norvegicus, UniProt P31652); assay: Serotonin transporter uptake, rat brain synaptosomes; format: biochemical; conditions: for selectivity for blocking 5-HT reuptake relative to NE and DA, in words / selectivity for inhibiting SERT relative to DAT and NET: uptake inhibition
T1 construct: from tissue

Dopamine transporter = Dopamine transporter (Homo sapiens, UniProt Q01959); assay: Dopamine transporter uptake (h); format: cell-based
5-HT2A (h) = molecular target: T2, 5-HT2A (h) (Homo sapiens, UniProt P28223); assay: 5-HT2A (h) agonist effect, IP1 HTRF functional assay; format: cell-based; conditions: for agonist efficacy at 5-HT2A, in words: EMAX relative to 5-HT
T2 construct: expressed in transfected cells; host or cells: HEK-293 cells

MAO-A = molecular target: T3, MAO-A (Homo sapiens, UniProt P21397); assay: Recombinant human MAO-A in vitro metabolism; format: in vitro ADME; conditions: for half-life at 1 µM: human, recombinant human MAO-A
T3 construct: purchased XenoTech (first series); Corning (second series) Corning 456283
T3 sequence (P21397 1-527): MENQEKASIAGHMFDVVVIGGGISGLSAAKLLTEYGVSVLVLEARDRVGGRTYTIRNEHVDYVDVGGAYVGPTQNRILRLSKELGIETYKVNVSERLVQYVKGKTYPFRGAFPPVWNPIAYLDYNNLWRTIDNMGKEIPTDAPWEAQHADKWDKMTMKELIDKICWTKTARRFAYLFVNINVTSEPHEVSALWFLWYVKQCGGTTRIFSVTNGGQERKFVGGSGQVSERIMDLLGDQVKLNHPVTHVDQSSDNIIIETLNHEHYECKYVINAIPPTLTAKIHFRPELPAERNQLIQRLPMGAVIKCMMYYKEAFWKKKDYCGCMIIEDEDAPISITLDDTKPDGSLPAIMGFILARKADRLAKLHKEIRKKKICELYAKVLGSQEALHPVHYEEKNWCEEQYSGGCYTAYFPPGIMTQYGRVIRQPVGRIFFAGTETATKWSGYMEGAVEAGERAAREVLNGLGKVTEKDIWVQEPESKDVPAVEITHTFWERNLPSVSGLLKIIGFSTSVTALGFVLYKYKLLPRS
Method: Recombinant human MAO-A. hrMAO-A and MAO control were purchased from XenoTech. The reaction mixture was prepared as described in Table 11. The test compound was added into the reaction mixture at a final concentration of 1 μM. The positive control kynuramine (25 μM) was run simultaneously with the test compound in a separate reaction. The reaction mixture (without test compounds or kynuramine) was equilibrated in a shaking water bath at 37° C. for 5 minutes. The reaction was initiated by the addition of the test compound or kynuramine, and the mixture was incubated in a shaking water bath at 37° C. Aliquots (150 μL) of the test compound reaction mixture were withdrawn at 0, 5, 10, 20, 30, 60, and for some assays at 120 minutes. Aliquots (150 μL) of the positive control reaction mixture were withdrawn at 0 and 30 minutes. Test compound and kynuramine samples were immediately combined with 150 μL of ice-cold 100% acetonitrile containing 0.1% formic acid and internal standard (0.2 μM metoprolol) to terminate the reaction. The samples were then mixed and centrifuged to precipitate proteins. All samples were assayed by LC-MS/MS. The peak area response ratio (PARR) of analyte to internal standard at each time point was compared to the PARR at time 0 to determine the percent remaining at each time point. Half-lives were calculated using GraphPad software, fitting to a single-phase exponential decay equation.
(§1) In a different series of reactions using human MAO-A and MAO-B, a 10 mM stock solution of the test compound was prepared in DMSO. From this stock solution, an intermediate stock solution of 1 mM was prepared by diluting the compound in DMSO and from this intermediate stock solution, a working solution of 0.30 mM was prepared by diluting the compound in ACN:Water (50:50) as cocktail of 2 compounds (30 μL each compound in 40 μL diluent for 100 μL). Following this, a master mix of 0.1 M potassium phosphate buffer and test compound mixture i.e., the non-deuterated and the deuterated analog, were prepared to achieve final drug concentration of 1 μM (0.2% DMSO) for the required number of reactions. The aforementioned master mix was pre-incubated at 37° C. for 5 min. To this master mix, MAO-A (final protein conc. 0.1 mg/mL; Corning Cat #456283; Lot #1173003) or MAO-B (final protein conc. 0.1 mg/mL; Corning Cat #456284; Lot #0318001) was added to initiate the reaction. The samples were then incubated at 37° C. for the desired time points. At each time point (0, 5, 15, 30, 45, 60), 40 μL of the samples were withdrawn and reactions were stopped using 200 μL chilled ACN containing 0.1% formic acid and internal standard Carbamazepine (10 ng/mL). The samples were centrifuged, and the supernatant was analyzed by LC-MS/MS. The percent compound remaining at each time point was calculated with respect to that of the 0 min sample. The data were then analyzed to calculate half-life and intrinsic clearance (CLint). Blank samples were prepared using DMSO (without the test compound).

5-HT2B (h) = molecular target: T4, 5-HT2B (h) (Homo sapiens, UniProt P41595); assay: 5-HT2B (h) agonist effect, IP1 HTRF functional assay; format: cell-based; conditions: for agonist efficacy at 5-HT2B, in words: EMAX relative to 5-HT
T4 construct: expressed in transfected cells; host or cells: CHO cells

[1] = molecular target: Norepinephrine transporter (Homo sapiens, UniProt P23975); assay: Norepinephrine transporter uptake (h); format: cell-based
MAO-B = molecular target: T5, MAO-B (Homo sapiens, UniProt P27338); assay: human MAO-B in vitro metabolism; format: in vitro ADME; conditions: human MAO-B enzyme (Corning), test compound 1 μM, read-out: MAO-B t1/2
T5 construct: purchased Corning 456284
T5 sequence (P27338 1-520): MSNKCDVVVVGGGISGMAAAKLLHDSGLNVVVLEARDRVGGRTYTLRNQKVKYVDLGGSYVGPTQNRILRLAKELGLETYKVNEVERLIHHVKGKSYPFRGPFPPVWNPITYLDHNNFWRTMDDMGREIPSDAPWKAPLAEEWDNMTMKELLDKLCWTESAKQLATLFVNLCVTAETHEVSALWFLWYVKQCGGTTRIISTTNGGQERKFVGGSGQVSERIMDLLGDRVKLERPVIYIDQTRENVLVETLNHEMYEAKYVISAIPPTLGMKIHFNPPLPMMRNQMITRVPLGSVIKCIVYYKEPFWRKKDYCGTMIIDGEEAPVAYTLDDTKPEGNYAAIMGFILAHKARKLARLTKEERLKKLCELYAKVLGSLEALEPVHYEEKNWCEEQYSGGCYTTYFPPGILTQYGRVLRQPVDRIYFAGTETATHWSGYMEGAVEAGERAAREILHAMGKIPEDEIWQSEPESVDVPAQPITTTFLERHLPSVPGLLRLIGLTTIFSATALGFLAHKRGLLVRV
Method: as §1

[2] = human recombinant MAO-A, test compound 1 μM, read-out: MAO-A t1/2

Norepinephrine transporter, sequence (P23975 whole entry): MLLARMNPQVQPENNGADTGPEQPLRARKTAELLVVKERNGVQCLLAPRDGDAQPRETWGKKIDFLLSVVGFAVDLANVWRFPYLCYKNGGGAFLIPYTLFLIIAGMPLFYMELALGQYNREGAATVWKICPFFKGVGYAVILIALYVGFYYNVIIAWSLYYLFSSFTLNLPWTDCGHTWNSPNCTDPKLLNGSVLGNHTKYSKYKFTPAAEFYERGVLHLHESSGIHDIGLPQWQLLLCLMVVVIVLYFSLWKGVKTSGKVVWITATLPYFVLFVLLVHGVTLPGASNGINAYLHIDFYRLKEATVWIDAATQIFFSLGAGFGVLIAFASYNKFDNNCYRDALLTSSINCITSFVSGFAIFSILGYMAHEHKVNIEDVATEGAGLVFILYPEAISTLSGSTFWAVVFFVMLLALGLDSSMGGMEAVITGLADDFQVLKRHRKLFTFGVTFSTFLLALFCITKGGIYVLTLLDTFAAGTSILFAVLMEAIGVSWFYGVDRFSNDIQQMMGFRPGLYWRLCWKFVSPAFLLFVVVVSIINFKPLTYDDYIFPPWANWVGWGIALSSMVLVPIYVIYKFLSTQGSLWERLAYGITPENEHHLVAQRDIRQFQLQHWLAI
T2 sequence (P28223 whole entry): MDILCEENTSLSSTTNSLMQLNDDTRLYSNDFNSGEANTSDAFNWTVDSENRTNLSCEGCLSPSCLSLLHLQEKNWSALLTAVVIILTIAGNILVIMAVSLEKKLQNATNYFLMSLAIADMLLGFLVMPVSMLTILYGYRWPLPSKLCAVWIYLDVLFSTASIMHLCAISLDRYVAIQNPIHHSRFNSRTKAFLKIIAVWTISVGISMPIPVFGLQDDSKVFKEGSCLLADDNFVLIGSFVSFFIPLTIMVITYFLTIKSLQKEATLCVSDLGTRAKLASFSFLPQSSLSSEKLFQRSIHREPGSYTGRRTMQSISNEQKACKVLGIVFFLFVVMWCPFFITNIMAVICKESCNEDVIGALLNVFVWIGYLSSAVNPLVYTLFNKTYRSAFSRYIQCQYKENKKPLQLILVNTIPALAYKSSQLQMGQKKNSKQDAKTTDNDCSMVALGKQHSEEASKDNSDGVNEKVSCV
Dopamine transporter, sequence (Q01959 whole entry): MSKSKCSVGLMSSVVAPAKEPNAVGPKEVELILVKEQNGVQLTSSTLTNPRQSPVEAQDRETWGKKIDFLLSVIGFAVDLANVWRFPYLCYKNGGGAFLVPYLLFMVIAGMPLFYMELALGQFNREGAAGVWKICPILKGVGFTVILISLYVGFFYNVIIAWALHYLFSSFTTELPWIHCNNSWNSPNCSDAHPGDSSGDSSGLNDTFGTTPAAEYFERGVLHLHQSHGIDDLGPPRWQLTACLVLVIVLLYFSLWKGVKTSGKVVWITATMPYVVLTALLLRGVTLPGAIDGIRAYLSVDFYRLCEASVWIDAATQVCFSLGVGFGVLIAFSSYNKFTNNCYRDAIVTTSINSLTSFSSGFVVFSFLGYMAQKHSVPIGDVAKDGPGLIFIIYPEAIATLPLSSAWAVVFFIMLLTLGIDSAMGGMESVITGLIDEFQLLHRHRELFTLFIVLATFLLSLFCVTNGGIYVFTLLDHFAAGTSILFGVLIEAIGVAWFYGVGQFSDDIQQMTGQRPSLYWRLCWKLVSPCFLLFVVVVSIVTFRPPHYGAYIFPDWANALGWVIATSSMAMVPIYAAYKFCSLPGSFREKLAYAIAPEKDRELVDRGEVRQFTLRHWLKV
T4 sequence (P41595 whole entry): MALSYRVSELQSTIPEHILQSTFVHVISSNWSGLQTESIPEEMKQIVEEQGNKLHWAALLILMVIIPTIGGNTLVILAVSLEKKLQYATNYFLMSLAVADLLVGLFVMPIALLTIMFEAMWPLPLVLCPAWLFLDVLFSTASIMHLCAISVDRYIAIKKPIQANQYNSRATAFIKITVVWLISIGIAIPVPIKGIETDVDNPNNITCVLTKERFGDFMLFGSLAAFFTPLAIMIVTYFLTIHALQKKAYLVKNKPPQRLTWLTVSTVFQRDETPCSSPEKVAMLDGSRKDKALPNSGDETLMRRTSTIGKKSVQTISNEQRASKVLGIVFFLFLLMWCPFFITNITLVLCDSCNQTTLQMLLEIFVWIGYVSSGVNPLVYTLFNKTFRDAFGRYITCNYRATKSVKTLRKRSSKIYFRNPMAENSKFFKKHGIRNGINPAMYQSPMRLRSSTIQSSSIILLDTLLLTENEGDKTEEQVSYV
T1 sequence (P31652 whole entry): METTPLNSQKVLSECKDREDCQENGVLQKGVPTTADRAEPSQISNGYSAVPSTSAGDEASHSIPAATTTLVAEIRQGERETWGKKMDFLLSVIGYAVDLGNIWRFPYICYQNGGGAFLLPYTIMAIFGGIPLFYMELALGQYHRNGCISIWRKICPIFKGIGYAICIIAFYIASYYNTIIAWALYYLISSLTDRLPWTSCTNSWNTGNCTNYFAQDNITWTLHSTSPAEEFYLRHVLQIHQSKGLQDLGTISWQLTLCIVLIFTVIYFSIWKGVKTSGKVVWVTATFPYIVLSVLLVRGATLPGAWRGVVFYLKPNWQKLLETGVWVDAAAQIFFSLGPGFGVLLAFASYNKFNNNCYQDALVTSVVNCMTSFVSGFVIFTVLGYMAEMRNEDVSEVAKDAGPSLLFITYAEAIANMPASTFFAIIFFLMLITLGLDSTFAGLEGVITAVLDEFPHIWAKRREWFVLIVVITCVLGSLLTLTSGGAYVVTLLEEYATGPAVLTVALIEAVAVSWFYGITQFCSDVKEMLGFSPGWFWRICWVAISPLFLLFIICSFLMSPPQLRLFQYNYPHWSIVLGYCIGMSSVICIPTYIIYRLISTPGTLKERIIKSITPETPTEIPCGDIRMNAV

NCCc1ccc2c(c1)OCS2 [II-14, 2-(benzo[d][1,3]oxathiol-6-yl)ethan-1-amine]
IC50 (Serotonin transporter): ~0.5 µM | Function SERT, inhibition of SERT (Serotonin transporter; from 3 to 100 μM): 98.5-107.9%, | Function SERT (blocking reuptake of 5-HT), efficacy in words (Serotonin transporter; tested at 1, 3, 10, 100 μM): Full efficacy, | efficacy for blocking 5-HT uptake through SERT, in words (Serotonin transporter; tested at 1, 3, 10, 100 μM): full efficacy | selectivity for blocking 5-HT reuptake relative to NE and DA, in words (Serotonin transporter): selectivity (higher potency) for blocking 5-HT reuptake relative to NE and DA | selectivity for inhibiting SERT relative to DAT and NET (Serotonin transporter): ~5 fold | IC50 (Dopamine transporter; Function DAT Estimated IC50, blocking reuptake of DA): ~10 µM | inhibition at 100 µM (Dopamine transporter; at 100 μM, read-out: Function DAT, inhibition of DAT): 95% | Function DAT (blocking reuptake of DA), efficacy in words (Dopamine transporter; tested at 1, 10, 100 μM): Near full efficacy, | efficacy for blocking DA uptake through DAT, in words (Dopamine transporter; tested at 1, 10, 100 μM): full efficacy | EC50 (5-HT2A (h)): 3 µM | Emax at 100 µM (5-HT2A (h); at 100 μM, relative to 5-HT, read-out: Function 5-HT2A EMAX): 87.3% | Function 5-HT2A (IP-1, efficacy relative to 5-HT), agonist type (5-HT2A (h); tested at 1, 3, 10, 100 μM): Nearly full agonist - | agonist efficacy at 5-HT2A, in words (5-HT2A (h); tested at 1, 3, 10, 100 μM): nearly full or full agonist; also recorded: full agonists | half-life at 1 µM (MAO-A; 1 μM test compound, read-out: half-life, MAO-A metabolism): ≤ 8 min | half-life at 1 µM (MAO-A; [2]): 4.09 min | EC50 (5-HT2B (h)): < 0.75 µM | Emax at 10 µM (5-HT2B (h); at 10 μM, relative to 5-HT, read-out: Function 5-HT2B EMAX): 100% | Function 5-HT2B (Gq-IP1, efficacy relative to 5-HT), agonist type (5-HT2B (h); tested at 1, 3, 10, 100 μM): Full agonist - | agonist efficacy at 5-HT2B, in words (5-HT2B (h); tested at 1, 3, 10, 100 μM): nearly full or full agonist; also recorded: full agonists | IC50 [1]: ~5 µM | inhibition at 100 µM ([1]; at 100 μM, read-out: Function NET, inhibition of NET): 92.9% | Function NET (blocking reuptake of NE), efficacy in words ([1]; tested at 1, 10, 100 μM): Near full efficacy, | efficacy for blocking NE uptake through NET, in words ([1]; tested at 1, 10, 100 μM): full efficacy | half-life at 1 µM (MAO-B): < 5 min

CC(N)Cc1ccc2c(c1)OCS2 (centres unmarked) [II-16, 1-(benzo[d][1,3]oxathiol-6-yl)propan-2-amine]
efficacy for blocking 5-HT uptake through SERT, in words (Serotonin transporter; tested at 1, 3, 10, 100 μM): full efficacy | selectivity for blocking 5-HT reuptake relative to NE and DA, in words (Serotonin transporter): selectivity (higher potency) for blocking 5-HT reuptake relative to NE and DA | selectivity for inhibiting SERT relative to DAT and NET (Serotonin transporter): ~5 fold | efficacy for blocking DA uptake through DAT, in words (Dopamine transporter; tested at 1, 10, 100 μM): full efficacy | agonist efficacy at 5-HT2A, in words (5-HT2A (h); tested at 1, 3, 10, 100 μM): nearly full or full agonist; also recorded: full agonists | half-life at 1 µM (MAO-A; [2]): > 120 min | stability in the presence of MAO-A (MAO-A; result in words): stable | agonist efficacy at 5-HT2B, in words (5-HT2B (h); tested at 1, 3, 10, 100 μM): nearly full or full agonist; also recorded: full agonists | efficacy for blocking NE uptake through NET, in words ([1]; tested at 1, 10, 100 μM): full efficacy | half-life at 1 µM (MAO-B): 857 min
